Measurements published in PubChem BioAssay AID2060602 (Molecular Pharmacology Branch, DTP, NCI, 2025).
pIC50: −log10 of the molar value. Several values for one entry are separate records, joined by “and”; a condition that tells them apart may be missing. Equal entries are not always repeated.

System: 648629-189-R-J1-PDC complex spheroids viability
Assay: Anticancer human tumor 648629-189-R-J1-PDC patient-derived bladder carcinoma cell line growth inhibition [CLK]
Conditions: for viability, T/C: stronger effect = lower value; for pIC50: curve of compound
Description: A high-throughput screen of multi-cell type tumor spheroids was designed to identify active combinations of […] and targeted small molecules. Complex spheroids include a stromal component modeled by human endothelial cells (HUVEC) and fibroblasts modeled by human mesenchymal stem cells (MSCs). The concentration ranges selected for each drug and investigational agent were based upon clinically achievable concentrations if the clinical Cmax of the agent was known.
Compounds. The drugs and investigational agents: cirtuvivint (SM08502; NSC835563), CC-671 (NSC850746), vemurafenib (NSC761431), tapotoclax (NSC804041), sotorasib (NSC818433), adagrasib (NSC831453), MRTX-1133 (NSC836407), BAY2416964 (NSC825713), copanlisib (NSC816437), inavolisib (NSC800729), abemaciclib (NSC768073), osimertinib (NSC779217), entinostat (NSC756642), eltanexor (KPT-8602, NSC794443), venetoclax (NSC766270), ceralasertib (NSC777638), bortezomib (NSC756655), olaparib (NSC753686), talazoparib (NSC767125), alisertib (NSC759677), peposertib (NSC802822), gemcitabine (NSC613327), 5-fluorouracil (NSC19893), SN-38 (NSC673596), oxaliplatin (NSC266046), paclitaxel (NSC125973), and doxorubicin (NSC123127), were obtained from the National Cancer Institute (NCI) Developmental Therapeutics Program Chemical Repository. The FDA-approved anticancer drug set is available from the Developmental Therapeutics Program at https://dtp.cancer.gov/organization/dscb/obtaining/available plates.htm. […] The stock solutions were prepared in dimethyl sulfoxide (DMSO, Sigma-Aldrich, St. Louis, MO, cat. D2650), except for the platinum complexes which were prepared in saline (Quality Biological, Gaithersburg, MD, cat. 114-055-101), at 800-fold the tested concentration and stored at -70 degrees C prior to their use. All drugs and investigational agents were tested over a range starting from a high concentration at or near the clinical Cmax and decreasing in half-log increments. If the clinical Cmax for an agent had not been determined, the highest concentration tested was 10 microM.
Cell Culture. All cells were maintained in an incubator at 37 degrees C and 5% CO2 with 95% humidity. The PDC lines were cultured according to standard operating procedures established by the NCI PDMR. Briefly, all PDCs were thawed and cultured in Matrigel-coated flasks prepared with a working solution of 1X Ham's F-12 nutrient mix, without supplementation (Invitrogen, Waltham, MA, cat. 11765054), 100 U/mL penicillin-streptomycin (Invitrogen, cat. 15140122), and 2.5% Matrigel (Corning Inc., Corning, NY, cat. 354248) for the first three passages. The 947758-054-R-J2-PDC line was cultured in 6B/Colon 1A media, which includes advanced DMEM/F-12 (Thermo Fisher Scientific, cat. 12634028), 10 mM HEPES (Thermo Fisher Scientific, cat. 15630080), 1X GlutaMAX supplement (Thermo Fisher Scientific, cat. 35050061), 0.1 mg/mL primocin (InvivoGen, cat. ant-pm-2), 10% defined fetal bovine serum, heat inactivated (HyClone Laboratories Inc., cat. SH30070.03HI), 1.25 mM N-Acetyl-L-cysteine (Sigma-Aldrich, cat. A9165), 10 mM nicotinamide (Sigma-Aldrich, cat. N0636), 1X B-27 supplement (Thermo Fisher Scientific, cat. 17504044), 1X N-2 supplement (Thermo Fisher Scientific, cat. 17502048), and 10 microM Y-27632 dihydrochloride (Tocris Bioscience, cat. 1254). The 876862-298-R-J1-PDC was cultured in 6E media, which includes all 6B/Colon 1A media components plus 50% L-WRN conditioned media (ATCC, cat. CRL-3276), 50 ng/mL recombinant human EGF recombinant protein (hEGF; Thermo Fisher Scientific, cat. PHG0311), 10 ng/mL recombinant human fibroblast growth factor 10 (hGFG-10; PeproTech, cat. 100-26), 1 ng/mL recombinant human fibroblast growth factor 2 (hFGF-2; PeproTech, cat. 100-18B), and 1 µM prostaglandin E2 (PGE2; Tocris, cat. 2296). The 227483-062-R1-J1-PDC line was cultured in Panc media, containing all 6E components except hFGF-2, with the addition of 500 nM SB-431542 (Selleckchem, cat. S1067) and 10 nM gastrin (Tocris, cat. 3006). […]
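Throughout, for viability, T/C: drug exposure lasted seven days before viability readout; 100% = DMSO vehicle control wells.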

Row | Structure (SMILES) | pIC50 | viability, T/C (compound 0.0316 µM) | viability, T/C (compound 0.1 µM) | viability, T/C (compound 0.316 µM) | viability, T/C (compound 1 µM) | viability, T/C (compound 3.16 µM) | viability, T/C (compound 10 µM) | viability, T/C (compound 0.000949 µM) | viability, T/C (compound 0.003 µM) | viability, T/C (compound 0.00949 µM) | viability, T/C (compound 0.03 µM) | viability, T/C (compound 0.0949 µM) | viability, T/C (compound 0.3 µM) | viability, T/C (compound 0.00316 µM) | viability, T/C (compound 0.01 µM)
1 | C=CC(=O)Nc1cc(Nc2nccc(-c3cn(C)c4ccccc34)n2)c(OC)cc1N(C)CCN(C)C | < 6.52 | – | – | – | – | – | – | 99.8% and 108% | 92.8% and 88.8% | 103% and 107% | 110% and 92.8% | 104% and 111% | 83.7% and 87.5% | – | –
2 | CC(C)CC(NC(=O)C(Cc1ccccc1)NC(=O)c1cnccn1)B(O)O (configuration not stated) | 8.36 and 8.59 | – | – | – | – | – | – | 93.5% and 99.9% | 73.2% and 41.8% | 1.45% and 1.53% | 0.27% and 1.43% | 0.2% and 0.17% | 1.64% and 0.18% | – | –
3 | CC(CO)NC(=O)c1cc(-c2ccc(Cl)cc2)nn(-c2cnn(C)c2)c1=O (configuration not stated) | < 5.00 | 103% and 108% | 96.4% and 90.6% | 95.2% and 95.5% | 96.3% and 98.4% | 88.3% and 117% | 86.7% and 92.5% | – | – | – | – | – | – | – | –
4 | CC(Nc1ccc2c(c1)OCCn1cc(N3C(=O)OCC3C(F)F)nc1-2)C(N)=O (configuration not stated) | 5.31 and 5.17 | 106% and 92.8% | 99.8% and 111% | 89% and 83.4% | 82.8% and 76.1% | 54.4% and 56.5% | 38.2% and 46.5% | – | – | – | – | – | – | – | –
5 | CC1(C)CCC(CN2CCN(c3ccc(C(=O)NS(=O)(=O)c4ccc(NCC5CCOCC5)c([N+](=O)[O-])c4)c(Oc4cnc5[nH]ccc5c4)c3)CC2)=C(c2ccc(Cl)cc2)C1 | < 5.00 | 102% and 96.3% | 94.1% and 86% | 99.4% and 93.7% | 88.7% and 93.4% | 84.9% and 93.4% | 62% and 110% | – | – | – | – | – | – | – | –
6 | CC1COCCN1c1cc(C2(S(C)(=N)=O)CC2)nc(-c2ccnc3[nH]ccc23)n1 (configuration not stated) | 5.53 and 5.55 | 103% and 105% | 96.5% and 93.5% | 108% and 97% | 87.4% and 95% | 47.8% and 45.4% | 23.8% and 18.8% | – | – | – | – | – | – | – | –
7 | CCCS(=O)(=O)Nc1ccc(F)c(C(=O)c2c[nH]c3ncc(-c4ccc(Cl)cc4)cc23)c1F | 5.12 and 5.22 | 99.7% and 107% | 97% and 82.6% | 98.6% and 98.2% | 104% and 93.3% | 108% and 90% | 32.9% and 19.8% | – | – | – | – | – | – | – | –

More lines, main results first:

Row | pIC50 | Structure (SMILES) | viability, T/C (compound 0.0316 µM) | viability, T/C (compound 0.1 µM) | viability, T/C (compound 0.316 µM) | viability, T/C (compound 1 µM) | viability, T/C (compound 3.16 µM) | viability, T/C (compound 10 µM) | viability, T/C (compound 0.000949 µM) | viability, T/C (compound 0.003 µM) | viability, T/C (compound 0.00949 µM) | viability, T/C (compound 0.03 µM) | viability, T/C (compound 0.0949 µM) | viability, T/C (compound 0.3 µM) | viability, T/C (compound 0.00316 µM) | viability, T/C (compound 0.01 µM)
8 | < 5.00 | C#Cc1c(F)ccc2cc(O)cc(-c3ncc4c(N5CC6CCC(C5)N6)nc(OCC56CCCN5CC(F)C6)nc4c3F)c12 (configuration not stated) | 97.9% and 109% | 94.2% and 99.3% | 91.3% and 98% | 91% and 107% | 94.4% and 111% | 88.9% and 101% | – | – | – | – | – | – | – | –
9 | 5.26 and 5.27 | C=C(F)C(=O)N1CCN(c2nc(OCC3CCCN3C)nc3c2CCN(c2cccc4cccc(Cl)c24)C3)CC1CC#N (configuration not stated) | 103% and 97.9% | 97.9% and 98.3% | 101% and 99% | 87.8% and 95.9% | 98% and 93.7% | 0.23% and 0.2% | – | – | – | – | – | – | – | –
10 | < 5.00 | C=CC(=O)N1CCN(c2nc(=O)n(-c3c(C)ccnc3C(C)C)c3nc(-c4c(O)cccc4F)c(F)cc23)C(C)C1 (configuration not stated) | 84.4% and 97.4% | 95.1% and 95.9% | 99.2% and 102% | 106% and 98.1% | 104% and 96.5% | 89.5% and 94.4% | – | – | – | – | – | – | – | –
11 | < 6.00 | CCN1CCN(Cc2ccc(Nc3ncc(F)c(-c4cc(F)c5nc(C)n(C(C)C)c5c4)n3)nc2)CC1 | 102% | 101% and 93.4% | 122% and 121% | 124% and 117% | – | – | – | – | – | – | – | – | 104% and 106% | 99.1% and 94.2%
